Columns and labels:
[1] = biological target: T1, human complement factor B (Homo sapiens, UniProt P00751); assay: TR-FRET competitive binding assay of human complement factor B (Cy5-labeled probe); details: inhibitory activity against complement factor B; biotin-labeled factor B 25 nM, Cy5 probe 75 nM, 4 °C
T1 construct: purchased ComplementTech A135

[2] = tested on: alternative complement pathway in human serum; assay: Complement deposition assay of serum alternative pathway (Wieslab Complement system Alternative pathway kit); format: biochemical; details: human serum diluted 18-fold, 37 °C 60 minutes, absorbance 405 nm
Description: The Wieslab® Complement system Alternative pathway kit (WIESLAB® Complement system Alternative pathway AP330 RUO) was used to detect the inhibitory activity of the compounds on the alternative complement pathway in human serum. Human serum was diluted 18-fold with the kit diluent. The diluted serum was added to a 96-well plate at 130 µL/well. Using a compound titrator (Tecan, D300e), test compounds at corresponding concentrations were added. The test concentration of the compounds started at 10 µM, with 3-fold serial dilution for 6 concentration points, detected in single wells. The DMSO ratio was uniformly adjusted to 0.1% using DMSO in all drug-treated wells. In the positive control wells, 0.1% DMSO and 130 µL of diluted serum were added; in the negative control wells, 0.1% DMSO and 130 µL of the kit diluent were added. The mixtures were pre-incubated at room temperature for 15 min. The incubated mixtures were transferred to the 96-well plate provided by the kit at 100 µL per well, incubated at 37 °C for 60 minutes, and the liquid in the wells was discarded. 300 µL of the washing solution in the kit was added to each well. The wells were washed three times. 100 µL of the conjugated antibody Conjugate in the kit was added to each well, and it was incubated at room temperature for 30 minutes. The liquid in the wells was removed. 300 µL of the washing solution in the kit was added to each well and the wells were washed three times. 100 µL of the substrate solution was added to each well and incubated at room temperature for 30 minutes. […] Table 2. Results of complement deposition in serum alternative pathway

[3] = Pharmacokinetic study in mice; format: in vivo; details: mouse, 10 mg/kg, PO (10 mpk), male ICR (CD-1) mice, plasma; for AUC(0-t): read-out: AUC0-24
Description: Experimental Example 3: Pharmacokinetic study in mice
Purpose of the experiment: To investigate the plasma pharmacokinetics in male ICR (CD-1) mice after single intravenous administration and gavage administration of the compounds of the present disclosure.
Experimental animals: Male ICR (CD-1) mice, body weight 32-35 g; supplier: Vital River Laboratory Animal Technology Co., Ltd.
Experimental procedures: Intravenous Administration (IV); Oral Gavage (PO); the dose was 10 mg/kg (vehicle: water (containing 0.5% methylcellulose (w/v) and 0.5% Tween 80 (v/v)).
Sample collection: At each set time point, 40 µL of blood was collected from the orbital sinus of the experimental animals. Whole blood samples were placed in anticoagulant tubes containing EDTA-K2. The whole blood samples were centrifuged at 1500 g for 10 min to separate plasma. The upper-layer plasma samples were collected into sample tubes for LC-MS/MS analysis.
Data analysis: Plasma concentrations were processed using the non-compartmental model in WinNonlin™Version6.3 (Pharsight, Mountain View, CA) pharmacokinetic software. Pharmacokinetic parameters Cl, T1/2, Cmax, and AUC0-24 were calculated using the linear-log trapezoidal method, and the results were shown in the table below. Table 3. Results of the pharmacokinetic study

T1 sequence (P00751 26-764): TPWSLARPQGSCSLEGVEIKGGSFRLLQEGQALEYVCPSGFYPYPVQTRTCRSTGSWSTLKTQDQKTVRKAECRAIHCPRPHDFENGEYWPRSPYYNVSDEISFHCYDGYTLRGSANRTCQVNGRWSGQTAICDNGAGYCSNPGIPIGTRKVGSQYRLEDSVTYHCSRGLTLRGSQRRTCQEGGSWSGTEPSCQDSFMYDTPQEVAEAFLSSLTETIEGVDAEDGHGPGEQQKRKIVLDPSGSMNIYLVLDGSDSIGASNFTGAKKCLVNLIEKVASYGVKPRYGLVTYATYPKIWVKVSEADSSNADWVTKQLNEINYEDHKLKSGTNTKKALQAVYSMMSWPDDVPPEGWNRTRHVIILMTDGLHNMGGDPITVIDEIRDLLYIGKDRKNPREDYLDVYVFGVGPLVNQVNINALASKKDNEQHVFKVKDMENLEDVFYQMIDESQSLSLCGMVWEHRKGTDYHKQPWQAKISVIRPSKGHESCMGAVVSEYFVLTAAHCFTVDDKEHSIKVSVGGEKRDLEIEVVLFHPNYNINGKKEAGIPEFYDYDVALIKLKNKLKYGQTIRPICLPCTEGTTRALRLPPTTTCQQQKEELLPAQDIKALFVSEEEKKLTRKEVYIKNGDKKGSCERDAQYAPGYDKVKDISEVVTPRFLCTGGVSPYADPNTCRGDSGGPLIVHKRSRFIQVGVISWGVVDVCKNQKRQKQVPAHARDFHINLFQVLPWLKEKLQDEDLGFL

Row | IC50 [1] [nM] | SMILES | other results
1 | > 1000 | COc1cc(C)c2[nH]ccc2c1CN1CCN(C2COC2)CC1c1ccc(C(=O)O)cc1 (racemic) [Example 3, (±)-4-(1-((5-methoxy-7-methyl-1H-indol-4-yl)methyl)-4-(oxetan-3-yl)piperazin-2-yl)benzoic acid] | 
2 | 31.2 | Cc1cc(OC(F)F)c(O[C@@H]2CCN(CC(F)F)C[C@H]2c2ccc(C(=O)O)cc2)c2cc[nH]c12 [Example 29, 4-((3R,4R)-1-(2,2-difluoroethyl)-4-((5-(difluoromethoxy)-7-methyl-1H-indol-4-yl)oxy)piperidin-3-yl) benzoic acid] | 
3 | 28.2 | COc1cc(C)c2[nH]ccc2c1CN1CCN(CCC(F)(F)F)CC1c1ccc(C(=O)O)cc1 (racemic) [Example 9, (±)4-(1-((5-methoxy-7-methyl-1H-indol-4-yl)methyl)-4-(3,3,3-trifluoropropyl)piperazin-2-yl) benzoic acid] | 
4 | 8 | CCOC1CCC(Sc2c(OC)cc(C)c3[nH]ccc23)C(c2ccc(C(=O)O)cc2)C1 (single isomer, unassigned) [Example 19b-2] | IC50 [2]: 104 nM
5 | 46 | Cc1cc(OC(F)F)c(O[C@@H]2CCN(CC(F)(F)F)C[C@H]2c2ccc(C(=O)O)cc2)c2cc[nH]c12 [Example 28, 4-((3R,4R)-4-((5-(difluoromethoxy)-7-methyl-1H-indol-4-yl)oxy)-1-(2,2,2-trifluoroethyl)piperidin-3-yl)benzoic acid] | 
6 |  | CCO[C@H]1CCN(Cc2c(OC)cc(C)c3[nH]ccc23)[C@H](c2ccc(C(=O)O)cc2)C1 [LNP023, reference compound] | Cmax [3]: 1160 ng/mL; AUC(0-t) [3]: 4110 ng·h/mL
7 | 178 | CCOC1CCC(Sc2c(OC)cc(C)c3[nH]ccc23)C(c2ccc(C(=O)O)cc2)C1 (single isomer, unassigned) [Example 19b-4] | 
8 | 285 | CCOC1CCC(Cc2c(OC)cc(C)c3[nH]ccc23)N(c2ccc(C(=O)O)cc2)C1 (single isomer, unassigned) [Example 32a-4, 4-(5-ethoxy-2-((5-methoxy-7-methyl-1H-indol-4-yl)methyl)piperidin-1-yl)benzoic acid] | 
9 | 224 | CCOC1CCC(Sc2c(OC)cc(C)c3[nH]ccc23)C(c2ccc(C(=O)O)cc2)C1 (single isomer, unassigned) [Example 19a-2] | 
10 |  | COc1cc(C)c2[nH]ccc2c1CN1CCN(CC(F)F)CC1c1ccc(C(=O)O)cc1 (racemic) [Example 6-2, (±)4-(4-(2,2-difluoroethyl)-1-((5-methoxy-7-methyl-1H-indol-4-yl)methyl)piperazin-2-yl)benzoic acid] | IC50 [2]: 215 nM
11 | 202 | COc1cc(C)c2[nH]ccc2c1CN1CCN(CC2CC2(F)F)CC1c1ccc(C(=O)O)cc1 (racemic) [Example 5, (±)4-(4-((2,2-difluorocyclopropyl)methyl)-1-((5-methoxy-7-methyl-1H-indol-4-yl)methyl)piperazin-2-yl)benzoic acid] | 
12 | 601 | CCOC1CCC(Cc2c(OC)cc(C)c3[nH]ccc23)N(c2ccc(C(=O)O)cc2)C1 (single isomer, unassigned) [Example 32a-2, 4-(5-ethoxy-2-((5-methoxy-7-methyl-1H-indol-4-yl)methyl)piperidin-1-yl)benzoic acid] | 
13 | 196 | COc1cc(C)c2[nH]ccc2c1SC1CCN(CC(F)F)CC1c1ccc(C(=O)O)cc1 (single isomer, unassigned) [Example 16-4] | 
14 | 257 | CCOC1CCC(Sc2c(OC)cc(C)c3[nH]ccc23)C(c2ccc(C(=O)O)cc2)C1 (single isomer, unassigned) [Example 19a-4] | 
15 | > 1000 | COc1cc(C)c2[nH]ccc2c1CN1CCN(CC2CC2)CC1c1ccc(C(=O)O)cc1 (racemic) [Example 4, (±)4-(4-(cyclopropylmethyl)-1-((5-methoxy-7-methyl-1H-indol-4-yl)methyl)piperazin-2-yl)benzoic acid] | 
16 | 70.7 | COc1cc(C)c2[nH]ccc2c1CN1CCN(CC(F)(F)F)CC1c1ccc(C(=O)O)cc1 (racemic) [Example 11-2, (±)4-(1-((5-methoxy-7-methyl-1H-indol-4-yl)methyl)-4-(2,2,2-trifluoroethyl)piperazin-2-yl) benzoic acid] | 
17 |  | COc1cc(C)c2[nH]ccc2c1O[C@H]1CCN(CCC(F)(F)F)C[C@@H]1c1ccc(C(=O)O)cc1 (single isomer, unassigned) [Example 15a-2] | IC50 [2]: 54.8 nM
18 | 72.2 | Cc1cc(OC(F)(F)F)c(O[C@@H]2CCN(CC(F)F)C[C@H]2c2ccc(C(=O)O)cc2)c2cc[nH]c12 [Example 30, 4-((3R,4R)-1-(2,2-difluoroethyl)-4-((7-methyl-5-(trifluoromethoxy)-1H-indol-4-yl)oxy)piperidin-3-yl)benzoic acid] | 
19 | 24 | Cc1cc(OC(F)F)c(OC2CCN(CCC(F)(F)F)CC2c2ccc(C(=O)O)cc2)c2cc[nH]c12 (single isomer, unassigned) [Example 25-2] | 
20 | 23.7 | COc1cc(C)c2[nH]ccc2c1O[C@@H]1CCN(CC(F)(F)F)C[C@H]1c1ccc(-c2n[nH]c(=O)o2)cc1 [Example 33, 5-(4-((3R,4R)-4-((5-methoxy-7-methyl-1H-indol-4-yl)oxy)-1-(2,2,2-trifluoroethyl)piperidin-3-yl)phenyl)-1,3,4-oxadiazol-2(3H)-one] | 
21 | > 1000 | COc1cc(C)c2[nH]ccc2c1CN1CCN(CC(F)F)CC1c1ccc(C(=O)O)cc1 (racemic) [Example 6-1, (±)4-(4-(2,2-difluoroethyl)-1-((5-methoxy-7-methyl-1H-indol-4-yl)methyl)piperazin-2-yl)benzoic acid] | 
22 | 12.2 | CCOC1CCC(Oc2c(OC)cc(C)c3[nH]ccc23)C(c2ccc(C(=O)O)cc2)C1 (single isomer, unassigned) [Example 20a-4] | IC50 [2]: 86.7 nM
23 | 427 | Cc1cc(OC(F)(F)F)c(O[C@@H]2CCN(CC(F)(F)F)C[C@H]2c2ccc(C(=O)O)cc2)c2cc[nH]c12 [Example 31, 4-((3R,4R)-4-((7-methyl-5-(trifluoromethoxy)-1H-indol-4-yl)oxy)-1-(2,2,2-trifluoroethyl)piperidin-3-yl)benzoic acid] | 
24 | 982 | COc1cc(C)c2[nH]ccc2c1O[C@H]1CCN(CC(F)F)C[C@@H]1c1ccc(C(=O)O)cc1 [Example 13a-1, 4-((3S,4S)-1-(2,2-difluoroethyl)-4-((5-methoxy-7-methyl-1H-indol-4-yl)oxy)piperidin-3-yl)benzoic acid] | 
25 |  | CCCN1CCN(Cc2c(OC)cc(C)c3[nH]ccc23)C(c2ccc(C(=O)O)cc2)C1 (racemic) [Example 1-2, (±)4-(1-((5-methoxy-7-methyl-1H-indol-4-yl)methyl)-4-propylpiperazin-2-yl)benzoic acid] | IC50 [2]: 132 nM
26 | 9.13 | [2H]C([2H])([2H])Oc1cc(C)c2[nH]ccc2c1O[C@@H]1CCN(CC(F)(F)F)C[C@H]1c1ccc(C(=O)O)cc1 [Example 27, 4-((3R,4R)-4-((5-(methoxy-d3)-7-methyl-1H-indol-4-yl)oxy)-1-(2,2,2-trifluoroethyl)piperidin-3-yl) benzoic acid] | 
27 |  | [2H]C([2H])([2H])Oc1cc(C)c2[nH]ccc2c1O[C@H]1CCN(CCC(F)(F)F)C[C@@H]1c1ccc(C(=O)O)cc1 (single isomer, unassigned) [Example 17a-2] | Cmax [3]: 679 ng/mL; AUC(0-t) [3]: 6480 ng·h/mL
28 | 117 | COc1cc(C)c2[nH]ccc2c1CN1CCN(C2CC(C(F)(F)F)C2)CC1c1ccc(C(=O)O)cc1 (racemic) [Example 10-2, (±)4-(1-((5-methoxy-7-methyl-1H-indol-4-yl)methyl)-4-(3-(trifluoromethyl)cyclobutyl)piperazin-2-yl)benzoic acid] | 
29 | 12.2 | [2H]C([2H])([2H])Oc1cc(C)c2[nH]ccc2c1O[C@@H]1CCN(CC(F)F)C[C@H]1c1ccc(C(=O)O)cc1 [Example 26, 4-((3R,4R)-1-(2,2-difluoroethyl)-4-((5-(methoxy-d3)-7-methyl-1H-indol-4-yl)oxy)piperidin-3-yl) benzoic acid] | Cmax [3]: 944 ng/mL; AUC(0-t) [3]: 4960 ng·h/mL

Source: EP4650351A1, “INHIBITOR OF COMPLEMENT FACTOR B” (Nanjing Chia Tai Tianqing Pharmaceutical Co., Ltd., priority 2023, dated 2024)
